Consider 16 compounds from ChEMBL document CHEMBL1201862, “PubChem BioAssay data set” (2004).

Activity calls are given as the source filed them.

Test [1] deals with T1, Bcl-2-like protein 10 (Homo sapiens, UniProt Q9HD36).
T1 sequence (Q9HD36 whole entry): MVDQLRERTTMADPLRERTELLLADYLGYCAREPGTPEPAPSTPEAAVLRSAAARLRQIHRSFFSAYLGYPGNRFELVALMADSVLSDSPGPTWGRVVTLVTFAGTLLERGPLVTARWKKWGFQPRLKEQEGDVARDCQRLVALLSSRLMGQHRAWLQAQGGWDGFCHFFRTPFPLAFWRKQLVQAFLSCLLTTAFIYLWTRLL
Description: Biochemical TR3 FP assay of Bcl-B inhibitor potency, EC50 (AID 1243). In kind it is functional.

Test [2] addresses T2, E3 ubiquitin-protein ligase XIAP (Homo sapiens, UniProt P98170). Description: Counter Screen using XIAP-Bir3 for Chemical Antagonists of Bir1/2 domains of IAP-family anti-apoptotic proteins. [Related pubchem assays (depositor defined):AID1018, AID1449, AID1514, AID1638, AID1749, AID1750, AID488957, AID488963].
Test [3] deals with T2, E3 ubiquitin-protein ligase XIAP. Briefly: XIAP antagonists, biochemical, IAP family, fluorescence polarization (AID 1018). It is filed as functional. For orientation: Polarisation of emitted light reports the rotation of a fluorescent probe.
The target of test [4] is Peroxisome proliferator-activated receptor gamma/Nuclear receptor coactivator 3 (Homo sapiens, UniProt P37231). In kind it is functional.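 Also: agonist potency for raising coactivator recruitment to the receptor.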
Chain of Peroxisome proliferator-activated receptor gamma/Nuclear receptor coactivator 3 (P37231 whole entry): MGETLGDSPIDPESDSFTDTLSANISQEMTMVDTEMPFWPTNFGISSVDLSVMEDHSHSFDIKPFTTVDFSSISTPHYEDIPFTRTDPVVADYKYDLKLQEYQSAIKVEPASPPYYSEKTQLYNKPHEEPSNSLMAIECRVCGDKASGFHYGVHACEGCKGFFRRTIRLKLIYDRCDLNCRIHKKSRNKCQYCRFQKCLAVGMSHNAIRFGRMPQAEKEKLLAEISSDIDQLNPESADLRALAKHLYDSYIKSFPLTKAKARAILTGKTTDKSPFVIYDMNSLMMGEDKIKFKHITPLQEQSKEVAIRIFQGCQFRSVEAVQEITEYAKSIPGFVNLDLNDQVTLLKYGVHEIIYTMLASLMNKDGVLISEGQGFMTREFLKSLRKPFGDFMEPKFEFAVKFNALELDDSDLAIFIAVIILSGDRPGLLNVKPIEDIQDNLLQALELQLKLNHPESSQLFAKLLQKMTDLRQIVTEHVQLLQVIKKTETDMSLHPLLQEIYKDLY
Chain of Peroxisome proliferator-activated receptor gamma/Nuclear receptor coactivator 3 (Q9Y6Q9 whole entry, further chain): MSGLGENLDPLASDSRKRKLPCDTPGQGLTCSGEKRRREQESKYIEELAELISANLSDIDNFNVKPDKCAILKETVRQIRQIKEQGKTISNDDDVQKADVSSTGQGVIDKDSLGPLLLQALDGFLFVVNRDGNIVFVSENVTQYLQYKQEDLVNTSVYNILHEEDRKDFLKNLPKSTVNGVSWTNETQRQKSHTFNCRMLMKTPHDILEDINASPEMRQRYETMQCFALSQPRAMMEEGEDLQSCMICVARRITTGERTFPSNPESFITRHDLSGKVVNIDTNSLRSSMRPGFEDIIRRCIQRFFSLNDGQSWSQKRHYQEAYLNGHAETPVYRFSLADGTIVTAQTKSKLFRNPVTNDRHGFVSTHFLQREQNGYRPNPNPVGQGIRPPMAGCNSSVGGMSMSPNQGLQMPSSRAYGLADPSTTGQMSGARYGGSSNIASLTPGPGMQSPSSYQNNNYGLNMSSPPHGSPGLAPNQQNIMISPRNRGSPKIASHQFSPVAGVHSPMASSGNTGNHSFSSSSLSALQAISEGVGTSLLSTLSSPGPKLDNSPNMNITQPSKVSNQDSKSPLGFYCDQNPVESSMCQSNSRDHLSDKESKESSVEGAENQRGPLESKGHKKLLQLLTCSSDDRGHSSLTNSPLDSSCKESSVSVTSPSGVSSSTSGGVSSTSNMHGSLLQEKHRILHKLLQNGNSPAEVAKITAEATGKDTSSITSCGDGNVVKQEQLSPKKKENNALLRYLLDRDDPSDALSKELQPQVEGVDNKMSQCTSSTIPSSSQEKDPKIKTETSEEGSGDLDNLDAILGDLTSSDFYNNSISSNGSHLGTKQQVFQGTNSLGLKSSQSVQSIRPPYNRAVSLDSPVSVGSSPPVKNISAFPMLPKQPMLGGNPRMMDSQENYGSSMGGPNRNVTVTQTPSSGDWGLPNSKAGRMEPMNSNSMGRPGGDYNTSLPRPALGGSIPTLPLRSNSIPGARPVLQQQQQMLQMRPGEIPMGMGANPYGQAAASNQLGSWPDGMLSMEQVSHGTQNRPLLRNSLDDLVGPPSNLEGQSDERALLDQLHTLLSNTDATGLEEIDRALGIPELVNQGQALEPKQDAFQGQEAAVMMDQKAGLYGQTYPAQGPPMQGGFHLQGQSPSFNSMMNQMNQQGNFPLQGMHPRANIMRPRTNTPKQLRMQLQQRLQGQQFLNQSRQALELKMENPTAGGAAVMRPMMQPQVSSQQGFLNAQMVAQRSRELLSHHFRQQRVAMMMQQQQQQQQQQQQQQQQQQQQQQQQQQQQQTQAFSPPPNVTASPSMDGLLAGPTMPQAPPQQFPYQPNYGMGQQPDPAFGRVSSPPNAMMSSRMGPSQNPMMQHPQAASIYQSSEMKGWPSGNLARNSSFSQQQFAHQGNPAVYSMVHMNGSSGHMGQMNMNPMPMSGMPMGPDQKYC
Test [5] has as its target Peroxisome proliferator-activated receptor gamma/Nuclear receptor coactivator 2 (Homo sapiens, UniProt P37231). It is filed as functional.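 Also: agonist potency for raising coactivator recruitment to the receptor.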
Test [6] has as its target Peroxisome proliferator-activated receptor gamma/Nuclear receptor coactivator 1 (Homo sapiens, UniProt P37231). It is filed as functional.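 Also: agonist potency as compounds enhance coactivator SRC-1 recruitment to PPARgamma.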
The target of the next test is T3, Aminopeptidase N (Plasmodium falciparum FcB1/Columbia, UniProt O96935).
T3 sequence (O96935 whole entry): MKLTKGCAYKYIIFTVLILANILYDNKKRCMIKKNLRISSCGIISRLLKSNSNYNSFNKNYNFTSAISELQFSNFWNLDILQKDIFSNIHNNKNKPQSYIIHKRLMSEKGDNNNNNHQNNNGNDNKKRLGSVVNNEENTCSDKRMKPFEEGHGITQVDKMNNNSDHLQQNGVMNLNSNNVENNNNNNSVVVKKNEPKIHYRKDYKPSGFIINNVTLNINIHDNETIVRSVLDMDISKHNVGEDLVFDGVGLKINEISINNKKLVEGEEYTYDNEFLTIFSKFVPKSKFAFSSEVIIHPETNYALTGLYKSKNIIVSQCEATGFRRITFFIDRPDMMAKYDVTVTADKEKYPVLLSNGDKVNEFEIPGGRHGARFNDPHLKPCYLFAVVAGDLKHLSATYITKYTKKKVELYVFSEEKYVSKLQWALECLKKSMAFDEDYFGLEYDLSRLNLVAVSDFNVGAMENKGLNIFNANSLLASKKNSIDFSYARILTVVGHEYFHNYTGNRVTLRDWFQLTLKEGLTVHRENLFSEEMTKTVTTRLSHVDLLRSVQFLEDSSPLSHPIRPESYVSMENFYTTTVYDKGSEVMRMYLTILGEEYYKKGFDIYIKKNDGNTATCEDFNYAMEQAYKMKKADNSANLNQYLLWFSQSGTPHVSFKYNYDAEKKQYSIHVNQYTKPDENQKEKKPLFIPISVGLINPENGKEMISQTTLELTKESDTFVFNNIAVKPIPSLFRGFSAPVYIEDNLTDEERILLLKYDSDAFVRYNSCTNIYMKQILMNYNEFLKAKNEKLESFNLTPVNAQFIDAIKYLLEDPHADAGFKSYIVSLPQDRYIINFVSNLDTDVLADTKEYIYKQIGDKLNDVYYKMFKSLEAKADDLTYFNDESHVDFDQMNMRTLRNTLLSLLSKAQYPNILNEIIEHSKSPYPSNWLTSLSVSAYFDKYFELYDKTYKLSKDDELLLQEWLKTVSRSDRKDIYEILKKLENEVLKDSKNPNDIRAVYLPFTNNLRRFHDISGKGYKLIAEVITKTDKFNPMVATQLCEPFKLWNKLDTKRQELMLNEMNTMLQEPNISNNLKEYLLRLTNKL
Description: P. falciparum M1AAP inhibitors, biochemical, fluorogenic H-Leu-NHMec substrate, 1536-well (AID 1445). Also on record: species or system Plasmodium falciparum 3D7, 3D7.

Another test addresses Procathepsin L (Homo sapiens, UniProt P07711). Description: cathepsin L inhibitors, dose response, counter-screen for M1/M17 aminopeptidase inhibitor project, biochemical, QFRET, 1536-well (AID 2214). (In general: Counterscreens check selectivity or assay interference.)
A further test deals with Aspartyl aminopeptidase (Plasmodium falciparum 3D7, UniProt Q8I2J3). Briefly: Counterscreen for inhibitors of M1 and M17 aminopeptidases: QFRET-based biochemical high throughput dose response assay for inhibitors of the Plasmodium falciparum M18 Aspartyl Aminopeptidase (PFM18AAP). [Related PubChem assays: 1619 (Screening assay (M17LAP inhibitors).), 1445 (Screening assay (M1AAP inhibitors).)].
Chain of Aspartyl aminopeptidase (Q8I2J3 whole entry): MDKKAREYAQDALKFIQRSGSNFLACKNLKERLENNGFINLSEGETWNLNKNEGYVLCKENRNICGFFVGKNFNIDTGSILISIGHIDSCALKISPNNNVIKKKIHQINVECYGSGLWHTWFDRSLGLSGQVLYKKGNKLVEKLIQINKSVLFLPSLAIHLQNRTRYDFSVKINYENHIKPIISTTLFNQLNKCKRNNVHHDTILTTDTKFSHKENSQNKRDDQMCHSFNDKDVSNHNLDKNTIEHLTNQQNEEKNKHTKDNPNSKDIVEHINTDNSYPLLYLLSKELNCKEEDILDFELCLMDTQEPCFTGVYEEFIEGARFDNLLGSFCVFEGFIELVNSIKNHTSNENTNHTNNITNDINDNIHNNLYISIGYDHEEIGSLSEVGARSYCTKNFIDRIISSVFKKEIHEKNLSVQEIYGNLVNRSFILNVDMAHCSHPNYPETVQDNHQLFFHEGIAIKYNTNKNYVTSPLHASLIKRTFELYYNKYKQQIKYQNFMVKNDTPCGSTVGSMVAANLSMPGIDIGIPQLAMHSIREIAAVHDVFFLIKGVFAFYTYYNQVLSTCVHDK

A short description of test [7]: cells. In kind it is functional, cell-based.
A short description of test [8]: cells. In kind it is functional, cell-based. The source holds these as a separate data set.
Test [9] can be described thus: A Cell Based Secondary Assay To Explore Cytotoxicity of Compounds that Sensitize Mycobacterium Tuberculosis to Beta-Lactam Antibiotics. In kind it is functional.
The test system of test [10] is Streptococcus. Briefly: Luminescence Microorganism-Based Dose Response Follow up to Identify Compounds Cytotoxic to Streptococcus. [Related pubchem assays: 1677 (Project Summary), 1915, 1914, 1902 (Retest at Dose), 1900 (Counter Screen), 1662 (Primary HTS)]. In kind it is functional, organism-based.
For test [11], the system named is Streptococcus sp. 'group A'. Description: growth inhibition of control SK(-) GAS strain, dose response, counter-screen for streptokinase expression inhibitor project, luminescence, kanamycin, BacTiterGlo, confirmation (AID 1900). It is filed as functional, organism-based.
For test [12], the system named is Streptococcus. Briefly: Group A Streptococcus viability loss, dose response, counter-screen for streptokinase expression inhibitor project, luminescence, BacTiterGlo (AID 1915).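 Also: potency for reduction of bacterial viability or growth.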 In kind it is functional, organism-based.
The target of the next test is T4, Estrogen receptor (Homo sapiens, UniProt P03372).
T4 sequence (P03372 whole entry): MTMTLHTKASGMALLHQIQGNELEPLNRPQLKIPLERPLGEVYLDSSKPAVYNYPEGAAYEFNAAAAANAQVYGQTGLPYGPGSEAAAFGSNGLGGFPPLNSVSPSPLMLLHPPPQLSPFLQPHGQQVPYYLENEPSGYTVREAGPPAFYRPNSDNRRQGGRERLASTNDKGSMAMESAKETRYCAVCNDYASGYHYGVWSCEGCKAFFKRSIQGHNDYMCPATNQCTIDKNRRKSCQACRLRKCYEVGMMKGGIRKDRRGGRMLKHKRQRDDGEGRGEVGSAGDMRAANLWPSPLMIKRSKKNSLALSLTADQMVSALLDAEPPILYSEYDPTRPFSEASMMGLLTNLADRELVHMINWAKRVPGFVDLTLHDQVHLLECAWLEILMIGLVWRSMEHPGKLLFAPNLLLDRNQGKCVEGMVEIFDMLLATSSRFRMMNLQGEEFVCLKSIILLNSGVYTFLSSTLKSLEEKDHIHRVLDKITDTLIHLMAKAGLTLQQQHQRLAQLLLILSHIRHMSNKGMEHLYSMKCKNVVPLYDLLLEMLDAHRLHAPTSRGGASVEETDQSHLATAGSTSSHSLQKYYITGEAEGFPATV
Description: potentiators of ERα–SRC-1 coactivator binding, dose response, biochemical, TR-FRET, ERα LBD (AID 737). For orientation: TR-FRET usually uses a lanthanide donor and a delayed reading to cut background.

In test [13] the target is Protein-tyrosine kinase 2-beta (Homo sapiens, UniProt Q14289).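 Also: potency of inhibitors of PYK2 kinase phosphorylation of poly-GT substrate.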
Chain of Protein-tyrosine kinase 2-beta (Q14289 whole entry): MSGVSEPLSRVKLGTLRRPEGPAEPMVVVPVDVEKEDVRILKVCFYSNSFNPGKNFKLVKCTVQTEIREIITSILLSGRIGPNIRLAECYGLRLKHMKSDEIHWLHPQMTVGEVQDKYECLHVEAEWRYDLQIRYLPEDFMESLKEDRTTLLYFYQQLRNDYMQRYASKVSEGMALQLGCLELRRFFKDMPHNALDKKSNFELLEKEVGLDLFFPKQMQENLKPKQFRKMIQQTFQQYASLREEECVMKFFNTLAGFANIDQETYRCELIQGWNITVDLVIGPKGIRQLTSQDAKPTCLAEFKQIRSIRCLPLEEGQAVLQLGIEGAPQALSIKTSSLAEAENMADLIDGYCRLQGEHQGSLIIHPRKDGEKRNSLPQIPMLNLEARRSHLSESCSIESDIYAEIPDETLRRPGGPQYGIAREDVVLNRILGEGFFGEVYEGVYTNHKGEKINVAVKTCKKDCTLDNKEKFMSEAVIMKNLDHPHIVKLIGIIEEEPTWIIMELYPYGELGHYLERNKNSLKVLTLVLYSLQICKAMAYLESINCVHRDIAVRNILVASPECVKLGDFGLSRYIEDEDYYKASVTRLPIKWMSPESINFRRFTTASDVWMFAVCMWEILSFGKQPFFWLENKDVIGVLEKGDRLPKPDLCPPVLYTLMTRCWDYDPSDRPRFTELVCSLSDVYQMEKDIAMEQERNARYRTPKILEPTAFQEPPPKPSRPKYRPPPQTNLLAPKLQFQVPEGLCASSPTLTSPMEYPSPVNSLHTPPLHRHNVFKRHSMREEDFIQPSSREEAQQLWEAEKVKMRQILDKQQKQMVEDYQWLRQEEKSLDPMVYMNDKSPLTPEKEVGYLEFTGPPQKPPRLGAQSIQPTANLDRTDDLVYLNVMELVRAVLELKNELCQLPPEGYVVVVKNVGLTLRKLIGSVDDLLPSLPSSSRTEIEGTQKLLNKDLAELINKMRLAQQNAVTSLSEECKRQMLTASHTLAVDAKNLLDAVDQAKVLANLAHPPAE
Test [14] deals with T1, Bcl-2-like protein 10. Briefly: displacers of TR3 peptide from Bcl-B, primary screen, selectivity assay for Bfl-1 inhibitor project, biochemical, fluorescence polarization, FITC-TR3 peptide (AID 748).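 Also: fluorescence polarization from a fluorescein-labelled TR3 peptide binding purified Bcl-B.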
Test [15] has as its target Eukaryotic translation initiation factor 4E (Mus musculus, UniProt P63073). Description: eIF4E–eIF4G protein interaction inhibitors, dose response, biochemical, TR-FRET (AID 855).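 Also: potency for disrupting eIF4E binding to eIF4GI seen as loss of FRET.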 It is filed as functional.
Test [16] in a line: Luminescence Cell-Based Dose Response to Identify Activators of 5'UTR Stem-Loop Driven Prion Protein mRNA Translation in H4-C Neuroglioblastoma Cells. [Related pubchem assays: 1829 (Project Summary), 1814 (Primary HTS)]. In kind it is functional.
Test [17] is described as follows: Luminescence Cell-Based Dose Confirmation HTS to Identify Activators of 5'UTR Stem-Loop Driven Alpha-Synuclein mRNA Translation in H4 Neuroglioblastoma Cells. [Related pubchem assays: 1829 (Project Summary), 1814 (Primary HTS)]. In kind it is functional.
In a further test the test system is H4. Description: Luminescence Cell-Based Dose Response HTS to Identify Activators of 5'UTR Stem-Loop Driven Prion Protein mRNA Translation in H4 Neuroglioblastoma Cells. [Related pubchem assays: 1829 (Project Summary), 1814 (Primary HTS)]. As to conditions: Homo sapiens. In kind it is functional.
The nature of test [18]: Luminescence Cell-Based Dose Confirmation to Identify Activators of 5'UTR Stem-Loop Driven Alpha-Synuclein mRNA Translation in H4 Neuroglioblastoma Cells. [Related pubchem assays: 1829 (Project Summary), 1814 (Primary HTS)]. In kind it is functional.
Test [19] is described as follows: Luminescence Cell-Based Dose Response to Identify Activators of Luciferase Translation or Activity in H4-C Neuroglioblastoma Cells. [Related pubchem assays: 1829 (Project Summary), 1814 (Primary HTS)]. It is filed as functional.
Test [20] in a line: Luminescence Cell-Based Dose Response HTS to Identify Activators of Luciferase Translation or Activity in H4 […] Cells. [Related pubchem assays: 1829 (Project Summary), 1814 (Primary HTS)]. It is filed as functional.

T2 sequence (P98170 whole entry): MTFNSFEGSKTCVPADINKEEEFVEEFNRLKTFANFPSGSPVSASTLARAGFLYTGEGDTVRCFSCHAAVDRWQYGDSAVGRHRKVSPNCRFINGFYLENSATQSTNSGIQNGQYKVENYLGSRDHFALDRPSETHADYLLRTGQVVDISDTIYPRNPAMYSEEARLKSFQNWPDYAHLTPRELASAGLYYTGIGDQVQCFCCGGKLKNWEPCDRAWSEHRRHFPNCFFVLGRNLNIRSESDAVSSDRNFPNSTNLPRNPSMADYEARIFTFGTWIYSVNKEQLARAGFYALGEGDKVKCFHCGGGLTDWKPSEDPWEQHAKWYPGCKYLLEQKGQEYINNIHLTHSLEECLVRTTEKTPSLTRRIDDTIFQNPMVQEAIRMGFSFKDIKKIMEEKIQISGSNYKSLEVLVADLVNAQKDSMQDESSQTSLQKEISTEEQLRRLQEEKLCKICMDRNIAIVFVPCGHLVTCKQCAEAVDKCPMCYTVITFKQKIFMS
Chain of Procathepsin L (P07711 whole entry): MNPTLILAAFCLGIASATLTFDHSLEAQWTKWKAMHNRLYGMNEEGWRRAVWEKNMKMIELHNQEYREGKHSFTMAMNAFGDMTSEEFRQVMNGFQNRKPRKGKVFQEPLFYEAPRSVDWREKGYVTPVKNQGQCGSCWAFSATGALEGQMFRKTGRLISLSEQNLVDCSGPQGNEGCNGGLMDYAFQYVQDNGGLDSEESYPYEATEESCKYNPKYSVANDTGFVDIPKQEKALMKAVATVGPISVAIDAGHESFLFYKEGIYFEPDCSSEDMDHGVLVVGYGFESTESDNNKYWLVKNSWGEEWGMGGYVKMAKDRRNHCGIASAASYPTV
Chain of Eukaryotic translation initiation factor 4E (P63073 whole entry): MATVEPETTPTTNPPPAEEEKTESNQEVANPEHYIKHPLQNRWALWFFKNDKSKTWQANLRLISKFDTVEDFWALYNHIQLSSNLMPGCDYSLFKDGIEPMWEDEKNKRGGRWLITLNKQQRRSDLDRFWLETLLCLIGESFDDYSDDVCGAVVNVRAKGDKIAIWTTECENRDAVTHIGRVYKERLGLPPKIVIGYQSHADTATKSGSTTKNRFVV

In general, EC50 refers to the concentration needed to bring the measured effect to its halfway point. For the compound `COc1cc(C2Nc3ccc4ccccc4c3C3=C2C(=O)CC(C)(C)C3)c(Br)cc1O` (stereo not given), at Bcl-2-like protein 10 [1], the 50% effective concentration (EC50) is 13.1 µM (active).
As usually defined, the IC50 is the concentration that inhibits the measured activity by half. With `CC(=O)N1CCCc2cc(S(=O)(=O)N(CC(C)C)CC(C)C)ccc21`, the figures for the IC50 in test [2] and in [3] were > 100 µM (inactive) and > 100 µM (not active), respectively.
As to `O=C(COC(=O)c1sc2ccccc2c1Cl)Nc1ncc(Cl)cc1Cl`, the concentration giving a half-maximal response (EC50) is recorded as 25.5 µM (not active) in test [4], 18.8 µM (not active) in [5] and 21.6 µM (not active) in test [6].
In the case of `O=C(O)CCC(=O)N1N=C(c2c(O)nc3ccc(Cl)cc3c2-c2ccccc2)CC1c1cccs1` (stereo not given), the IC50 is 5.76 µM (active) at Aminopeptidase N, > 59.6 µM (not active) against Procathepsin L and > 73.5 µM (not active) at Aspartyl aminopeptidase.
The CC50 is the concentration at which the toxic effect on the cells reaches its halfway point. On to `CC(C)N=C(S)NN=C1c2ccccc2-c2ccccc21`, for which the EC50 in “cells [7]” and in the test “cells [8]” was > 350 µM (not active) each time. Further, the CC50 in test [9] was > 40 µM (active).
With `COc1ccc(SCC(=O)N2c3ccccc3Sc3ccccc32)cc1`, the EC50 in the test with Streptococcus [10] was > 500 µM (not active).
On to `O=C(CSc1nc(O)nc(-c2ccc(Cl)cc2)n1)Nc1cccc(Cl)c1`, for which the values for the EC50 (in test [11]; in the test on Streptococcus [10]; with Streptococcus [12]) were 4.35 µM (active), 26.2 µM (active) and > 150 µM (not active), respectively.
Turning to `CCOC(=O)c1c(C)[nH]c(C)c1C(=O)COC(=O)c1ccc(S(=O)(=O)N(CC)CC)cc1`, in test [9], the CC50 is > 40 µM (active).
With `O=C(O)CCC(=O)N1N=C(c2c(-c3ccccc3)c3cc(Cl)ccc3[nH]c2=O)CC1c1ccco1` (stereo not given), the IC50 is 13 µM (active) at Aminopeptidase N, > 59.6 µM (not active) against Procathepsin L and > 73.5 µM (not active) against Aspartyl aminopeptidase.
In the case of `NC(=O)c1oc2ccccc2c1NC(=O)c1nc2ccccc2s1`, on Estrogen receptor, the EC50 was 13.4 µM (active).
For the compound `Cc1cc(N)ccc1N1CCCC1`, the IC50 was 1.82 µM (active) in test [13], 0.963 µM (active) at Bcl-2-like protein 10 [14] and 33.1 µM (inactive) in test [15].
Turning to `Cn1c(=O)cc2c3c(c(Nc4ccc(C=O)cc4)ccc31)C(=O)c1ccccc1-2`, on Bcl-2-like protein 10 [1], the EC50 is 8.04 µM (active).
Regarding `Cn1cc(Br)c(C(=O)Nc2sc3c(c2C(N)=O)CCCC3)n1`, the EC50 was > 12 µM (not active) in test [16]; 13.3 µM (active) in test [17]; 0.117 µM (active) in the test on H4; > 12 µM (not active) in [18]; > 12 µM (not active) in test [19]; 13.6 µM (active) in test [20].
Consider `COc1ccccc1-n1c(SCC(=O)NC2CCCCC2)nc2c(c1=O)SCC2`, for which the EC50 on Estrogen receptor was 6.62 µM (not active).
`Cc1ccc(OC(=O)c2ccccc2P(=O)(O)O)cc1`: the IC50 in test [13] is 9.74 µM (active).
`CCCN1Cc2cccc(C(=O)Nc3ccc4c(c3)OCO4)c2C1=O`: the IC50 in [2] was > 100 µM (inactive); in [3], > 100 µM (not active).
